SMILES strings stand for the structures.

This note sets out measurements from patent publication US10266497B2 (ABIDE THERAPEUTICS, INC., priority 2017, dated 2019).

Experiment [1] deals with T1, MAGL (Homo sapiens, UniProt Q99685).
T1 sequence (Q99685 1-303): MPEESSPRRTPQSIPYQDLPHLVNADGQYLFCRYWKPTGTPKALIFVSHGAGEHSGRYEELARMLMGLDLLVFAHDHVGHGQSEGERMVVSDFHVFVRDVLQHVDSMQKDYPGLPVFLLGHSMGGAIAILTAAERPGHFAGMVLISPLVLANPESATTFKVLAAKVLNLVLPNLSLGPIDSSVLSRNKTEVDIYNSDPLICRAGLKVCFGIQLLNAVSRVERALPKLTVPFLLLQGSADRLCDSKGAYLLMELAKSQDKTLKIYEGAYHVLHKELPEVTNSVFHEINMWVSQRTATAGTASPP
Put plainly: In vitro competitive activity-based protein profiling, MAGL, human. As to conditions: read-out: MAGL % inh. 1 μM (human).

The target of experiment [2] is T2, MAGL (Mus musculus, UniProt O35678).
T2 sequence (O35678 1-303): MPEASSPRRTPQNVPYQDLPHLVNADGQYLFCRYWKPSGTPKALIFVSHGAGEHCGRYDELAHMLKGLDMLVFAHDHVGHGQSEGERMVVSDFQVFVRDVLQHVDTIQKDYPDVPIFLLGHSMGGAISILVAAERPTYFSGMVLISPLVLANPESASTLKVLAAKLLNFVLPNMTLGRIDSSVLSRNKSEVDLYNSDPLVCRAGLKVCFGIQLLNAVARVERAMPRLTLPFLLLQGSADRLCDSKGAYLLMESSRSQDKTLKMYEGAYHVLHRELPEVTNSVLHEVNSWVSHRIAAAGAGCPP
Put plainly: In vitro competitive activity-based protein profiling, MAGL, mouse. As to conditions: read-out: MAGL % inh. 1 μM (mouse).

Regarding `O=C(O)c1ccn(C(=O)N2C[C@H]3C[C@H](OCc4ccc(Cl)c(-c5nccs5)c4)C[C@H]3C2)n1` [Example 345, 1-(trans-5-((4-chloro-3-(thiazol-2-yl)benzyl)oxy)octa-hydrocyclopenta[c]pyrrole-2-carbonyl)-1H-pyrazole-3-carboxylic acid], the inhibition at 1 µM in experiment [1] and in experiment [2] was more than 75% throughout.
Regarding `O=C(O)c1ccn(C(=O)N2CCC3(CCN(Cc4ccc(Cl)c(N5CC6COCC6C5)c4)C3)CC2)n1` (centres unmarked) [Example 401, 1-(2-(4-chloro-3-(tetrahydro-1H-furo[3,4-c]pyrrol-5(3H)-yl)benzyl)-2,8-diazaspiro[4.5]decane-8-carbonyl)-1H-pyrazole-3-carboxylic acid], the inhibition at 1 µM in experiment [1] lay within 25 to 50%; in experiment [2], 0 to 25%.
For the compound `NC(=O)c1ccn(C(=O)N2CCC3(CCCN3C(=O)c3cc4ccc(C(F)(F)F)cc4s3)CC2)n1` [Example 389, 1-(1-(6-(trifluoromethyl)benzo[b]thiophene-2-carbonyl)-1,8-diazaspiro[4.5]decane-8-carbonyl)-1H-pyrazole-3-carboxamide], the inhibition at 1 µM in experiment [1] and in experiment [2] was more than 75% each time.
As for `COc1cc(-c2ccccc2)ccc1CN1CCN(C(=O)n2ccc(C(=O)O)n2)[C@H](C)C1` [Example 283, (R)-1-(4-((3-methoxy-[1,1′-biphenyl]-4-yl)methyl)-2-methylpiperazine-1-carbonyl)-1H-pyrazole-3-carboxylic acid], the inhibition at 1 µM in experiment [1] and in experiment [2] was more than 75% throughout.
As for `C[C@@H]1CN(Cc2cccc(OCC(C)(C)O)c2Cl)CCN1C(=O)n1ccc(C(N)=O)n1` [Example 216, (R)-1-(4-(2-chloro-3-(2-hydroxy-2-methylpropoxy)benzyl)-2-methylpiperazine-1-carbonyl)-1H-pyrazole-3-carboxamide], the inhibition at 1 µM in experiment [1] and in experiment [2] was more than 75% in each case.
As for `O=C(O)c1ccn(C(=O)N2C[C@H]3C[C@H](Oc4ccccc4-c4ccccc4)C[C@H]3C2)n1` [Example 239, 1-(trans-5-([1,1′-biphenyl]-2-yloxy)octahydro-cyclopenta[c]pyrrole-2-carbonyl)-1H-pyrazole-3-carboxylic acid], the inhibition at 1 µM in experiment [1] and in experiment [2] was more than 75% throughout.
Take `C[C@@H]1CN(Cc2cccc(Oc3ccc(Cl)cc3)c2)CCN1C(=O)n1ccc(C(N)=O)n1` [Example 310, (R)-1-(4-(3-(4-chlorophenoxy)benzyl)-2-methylpiperazine-1-carbonyl)-1H-pyrazole-3-carboxamide]: the inhibition at 1 µM in experiment [1] and in experiment [2] was more than 75% in each case.
`O=C(O)c1nn(C(=O)N2CCN(Cc3cccc(Oc4cc(C(F)(F)F)ccn4)c3)CC2)cc1Cl` [Example 399, 4-chloro-1-(4-(3-((4-(trifluoromethyl)pyridin-2-yl)oxy)benzyl)piper-azine-1-carbonyl)-1H-pyrazole-3-carboxylic acid]: the inhibition at 1 µM in experiment [1] and in experiment [2] was more than 75% each time.
On to `O=C(O)c1ccn(C(=O)N2CCC3(CCN(Cc4ccc(Cl)c(N5CCCC5)c4)C3)CC2)n1` [Example 343, 1-(2-(4-chloro-3-(pyrrolidin-1-yl)benzyl)-2,8-diazaspiro[4.5]decane-8-carbonyl)-1H-pyrazole-3-carboxylic acid], for which the inhibition at 1 µM in experiment [1] was in the range of 25 to 50%; in experiment [2] it was 0 to 25%.
Turning to `CC(C)c1ccccc1O[C@H]1C[C@@H]2CN(C(=O)n3ccc(C(=O)O)n3)C[C@@H]2C1` [Example 221, 1-(trans-5-(2-isopropylphenoxy)octahydrocyclopenta [c]pyrrole-2-carbonyl)-1H-pyrazole-3-carboxylic acid], the inhibition at 1 µM in experiment [1] and in experiment [2] was more than 75% each time.
